Where a name gives a salt, the structure may show the parent alone.
Biological target: uremic plasma (Homo sapiens, UniProt P02768)
Assay: Binding capacity of uremic plasma for IS at different NaCl concentrations
Format: in vitro ADME
Protocol: After having received approval from the competent institutional review board (ethics committee of the University Hospital Würzburg, code AZ 64/12), written informed consent was obtained from 15 end-stage renal disease patients on maintenance hemodialysis in a single dialysis center (Dialysis center, Elsenfeld, Germany). Blood (7.5 mL) was collected in EDTA-tubes from each patient before dialysis.

Chain of uremic plasma (P02768 25-609): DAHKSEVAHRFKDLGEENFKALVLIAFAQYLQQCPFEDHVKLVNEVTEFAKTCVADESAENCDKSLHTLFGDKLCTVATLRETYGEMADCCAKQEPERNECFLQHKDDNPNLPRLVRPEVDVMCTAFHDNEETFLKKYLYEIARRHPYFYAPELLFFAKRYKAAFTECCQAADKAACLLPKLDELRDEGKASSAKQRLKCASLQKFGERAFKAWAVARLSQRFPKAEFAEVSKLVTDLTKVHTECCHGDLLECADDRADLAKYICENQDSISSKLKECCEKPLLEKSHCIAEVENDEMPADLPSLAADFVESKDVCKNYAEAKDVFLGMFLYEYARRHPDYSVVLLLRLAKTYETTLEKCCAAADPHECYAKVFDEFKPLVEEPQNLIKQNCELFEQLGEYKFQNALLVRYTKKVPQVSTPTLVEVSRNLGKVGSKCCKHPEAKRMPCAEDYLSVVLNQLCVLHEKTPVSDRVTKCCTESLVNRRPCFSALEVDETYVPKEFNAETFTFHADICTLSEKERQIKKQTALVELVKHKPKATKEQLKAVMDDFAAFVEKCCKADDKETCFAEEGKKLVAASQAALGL

Cc1ccc(OS(=O)(=O)O)cc1 [p-cresyl sulfate]
protein bound fraction ([…] NaCl, uremic plasma 1:2 diluted, native toxin): 91% ± 2%
total (native) toxin concentration in uremic plasma (plasma of hemodialysis patients before dialysis): 90 ± 28 µM

Source: publication PMC3942743 (Toxins, 2014)
